# Laboratory results as given in patent US8664257B2, “Oxygen-substituted 3-heteroaroylamino-propionic acid derivatives and their use as pharmaceuticals” (Sanofi, priority 2010, dated 2014).
# pIC50: −log10 of the molar value.
# Target: T1, Recombinant human cathepsin A (Homo sapiens, UniProt P10619)
# T1 construct: Recombinant human cathepsin A (residues 29-480, with a C-terminal 10-His tag); 10-His (C); purchased R&D Systems 1049-SE
# T1 sequence (P10619 29-312 limits assumed): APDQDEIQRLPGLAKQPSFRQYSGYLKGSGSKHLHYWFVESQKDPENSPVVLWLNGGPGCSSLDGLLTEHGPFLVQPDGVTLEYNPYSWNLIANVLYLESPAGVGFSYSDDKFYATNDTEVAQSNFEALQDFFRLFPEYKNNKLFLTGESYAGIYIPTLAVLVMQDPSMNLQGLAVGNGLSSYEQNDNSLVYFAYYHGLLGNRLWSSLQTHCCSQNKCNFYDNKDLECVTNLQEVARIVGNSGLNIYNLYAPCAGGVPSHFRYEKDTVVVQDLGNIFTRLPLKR
# T1 sequence (P10619 327-480 limits assumed): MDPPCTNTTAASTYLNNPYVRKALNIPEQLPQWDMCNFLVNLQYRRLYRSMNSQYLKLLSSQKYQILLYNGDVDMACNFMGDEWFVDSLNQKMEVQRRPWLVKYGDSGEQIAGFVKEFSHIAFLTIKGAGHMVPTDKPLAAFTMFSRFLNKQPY
# Test: Cathepsin A inhibitory activity
# Format: biochemical
# Conditions: pharmacological test "Cathepsin A inhibitory activity"; IC50 given as class A/B/C; read-out: Activity (2): Cathepsin A inhibitory activity, IC50 class
# Procedure: a) Cathepsin A Inhibitory Activity
# Recombinant human cathepsin A (residues 29-480, with a C-terminal 10-His tag; R&D Systems, #1049-SE) was proteolytically activated with recombinant human cathepsin L (R&D Systems, #952-CY). Briefly, cathepsin A was incubated at 10 μg/ml with cathepsin L at 1 μg/ml in activation buffer (25 mM 2-(morpholin-4-yl)-ethanesulfonic acid (MES), pH 6.0, containing 5 mM dithiothreitol (DTT)) for 15 min at 37° C. Cathepsin L activity was then stopped by the addition of the cysteine protease inhibitor E-64 (N-(trans-epoxysuccinyl)-L-leucine-4-guanidinobutylamide; Sigma-Aldrich, #E3132; dissolved in activation buffer/DMSO) to a final concentration of 10 μM.
# The activated cathepsin A was diluted in assay buffer (25 mM MES, pH 5.5, containing 5 mM DTT) and mixed with the test compound (dissolved in assay buffer containing (v/v) 3% DMSO) or, in the control experiments, with the vehicle in a multiple assay plate. After incubation for 15 min at room temperature, as substrate then bradykinin carrying an N-terminal®Bodipy FL (4,4-difluoro-5,7-dimethyl-4-bora-3a,4a-diaza-s-indacene-3-propionyl) label (JPT Peptide Technologies GmbH; dissolved in assay buffer) was added to the mixture. The final concentration of cathepsin A was 833 ng/ml and the final concentration of labeled bradykinin 2 μM. After incubation for 15 min at room temperature the reaction was stopped by the addition of stop buffer (130 mM 2-(4-(2-hydroxy-ethyl)-piperazin-1-yl)-ethanesulfonic acid, pH 7.4, containing (v/v) 0.013% Triton X-100, 0.13% Coating Reagent 3 (Caliper Life Sciences), 6.5% DMSO and 20 μM ebelactone B (Sigma, # E0886)).
# Uncleaved substrate and product were then separated by a microfluidic capillary electrophoresis on a LabChip® 3000 Drug Discovery System (12-Sipper-Chip; Caliper Life Sciences) and quantified by determination of the respective peak areas. Substrate turnover was calculated by dividing product peak area by the sum of substrate and product peak areas, and the enzyme activity and the inhibitory effect of the test compound thus quantified. From the percentage of inhibition of cathepsin A activity observed with the test compound at several concentrations, the inhibitory concentration IC50, i.e. the concentration which effects 50% inhibition of enzyme activity was, calculated.
row,Structure (SMILES),pIC50
1,O=C(O)C[C@H](NC(=O)c1cc(O)n(-c2ccccc2Cl)n1)c1cccc(Cl)c1 [Example 214],6.00 to 7.00
2,N#Cc1cccc([C@H](CC(=O)O)NC(=O)c2cc(O)n(-c3ccccc3)n2)c1 [Example 160],4.52 to 6.00
3,O=C(O)CC(NC(=O)c1cc(O)n(-c2ccccc2F)n1)c1cccc(C(F)(F)F)c1 (centres unmarked) [Example 231],6.00 to 7.00
4,O=C(O)C[C@H](NC(=O)c1cc(O)n(-c2ccccc2)n1)c1ccccc1Br [Example 159],6.00 to 7.00
5,O=C(O)CC(NC(=O)c1cc(O)n(-c2cccc(Cl)c2)n1)c1cccc(Cl)c1F (centres unmarked) [Example 262],6.00 to 7.00

# Same assay, conditions: read-out: Activity (2): Cathepsin A inhibitory activity (IC50 class)
row,Structure (SMILES),pIC50
1,Cc1ccccc1[C@H](CC(=O)O)NC(=O)c1cc(OCc2ccncc2)n(-c2ccccc2F)n1 [Example 629],> 7.00
2,Cc1ccccc1[C@H](CC(=O)O)NC(=O)c1cc(OCC2CC2)n(-c2ccccc2)n1 [Example 622],> 7.00
3,O=C(O)CC(NC(=O)c1cc(O)n(-c2ccccc2F)n1)c1ccc(-c2ccc(C(F)(F)F)cc2)cc1 (centres unmarked) [Example 576],6.00 to 7.00
4,CCOc1cc(C(=O)N[C@@H](CC(=O)O)c2ccccc2Cl)nn1-c1ccccc1Cl [Example 737],> 7.00
5,"CS(=O)(=O)c1ccc(C(CC(=O)O)NC(=O)c2cc(O)n(-c3ccccc3F)n2)cc1 (centres unmarked) [Example 603, 3-{[1-(2-Fluoro-phenyl)-5-hydroxy-1H-pyrazole-3-carbonyl]-amino}-3-(4-methanesulfonyl-phenyl)-propionic acid]",4.52 to 6.00
6,"CC(C)[C@](C)(O)COc1cc(C(=O)N[C@@H](CC(=O)O)c2ccccc2C(F)(F)F)nn1-c1ccccc1F [Example 784, (S)-3-{[1-(2-Fluoro-phenyl)-5-((S)-2-hydroxy-2,3-dimethyl-butoxy)-1H-pyrazole-3-carbonyl]-amino}-3-(2-trifluoromethyl-phenyl)-propionic acid]",> 7.00
7,"Cc1ccc([C@H](CC(=O)O)NC(=O)c2cc(OC[C@](C)(O)C(C)(C)C)n(-c3ccccc3F)n2)cc1 [Example 780, (S)-3-{[1-(2-Fluoro-phenyl)-5-((R)-2-hydroxy-2,3,3-trimethyl-butoxy)-1H-pyrazole-3-carbonyl]-amino}-3-p-tolyl-propionic acid]",> 7.00
8,CCOc1cc(C(=O)N[C@@H](CC(=O)O)c2ccccc2Cl)nn1-c1ccccc1F [Example 717],> 7.00
9,"O=C(O)CC(NC(=O)c1cc(O)n(-c2ccccc2F)n1)c1ccc(-n2cncn2)cc1 (centres unmarked) [Example 550, 3-{[1-(2-Fluoro-phenyl)-5-hydroxy-1H-pyrazole-3-carbonyl]-amino}-3-(4-[1,2,4]triazol-1-yl-phenyl)-propionic acid]",6.00 to 7.00
10,O=C(O)CC(NC(=O)c1cc(O)n(-c2cccc(Cl)c2F)n1)c1ccc(-c2ccc(F)cc2)cc1 (centres unmarked) [Example 590],6.00 to 7.00
11,COc1cc(C(=O)N[C@@H](CC(=O)O)c2ccc(C)cc2)nn1-c1ccccc1F [Example 675],> 7.00
12,Cc1ccccc1[C@H](CC(=O)O)NC(=O)c1cc(OCC2CC2(F)F)n(-c2ccccc2F)n1 (some centres unmarked) [Example 645],> 7.00
13,"CC(C)(C)[C@@](C)(O)COc1cc(C(=O)N[C@@H](CC(=O)O)c2ccc(F)cc2)nn1-c1ccccc1F [Example 771, (S)-3-(4-Fluoro-phenyl)-3-{[1-(2-fluoro-phenyl)-5-((R)-2-hydroxy-2,3,3-trimethyl-butoxy)-1H-pyrazole-3-carbonyl]-amino}-propionic acid]",> 7.00
14,Cc1ccccc1C(CC(=O)O)NC(=O)c1nn(-c2ccccc2F)c(O)c1C (centres unmarked) [Example 592],6.00 to 7.00
15,"CC(C)(C)[C@@](C)(O)COc1cc(C(=O)N[C@@H](CC(=O)O)c2ccccc2Cl)nn1-c1ccccc1F (single isomer, unassigned) [Example 758]",> 7.00

# Same assay, conditions: read-out: Activity (2): Cathepsin A inhibitory activity, IC50 class
row,Structure (SMILES),pIC50
1,CC(C)(CC(=O)O)NC(=O)c1cc(O)n(-c2ccccc2)n1 [Example 4],4.52 to 6.00
2,Cc1ccc(C)c(-n2nc(C(=O)NC(CC(=O)O)c3cccc(Cl)c3)cc2O)c1 (centres unmarked) [Example 29],4.52 to 6.00
3,Cc1ccc(C(CC(=O)O)NC(=O)c2cc(O)n(-c3ccc(F)cc3)n2)c(C)c1 (centres unmarked) [Example 89],6.00 to 7.00
4,Cc1ccc(C)c(-n2nc(C(=O)NC(C)(C)CC(=O)O)cc2O)c1 [Example 8],4.52 to 6.00
5,N#Cc1cccc([C@H](CC(=O)O)NC(=O)c2cc(O)n(-c3ccc(F)cc3)n2)c1 [Example 340],4.52 to 6.00
6,COc1ccc(-n2nc(C(=O)N[C@@H](CC(=O)O)c3ccccc3C)cc2O)cc1 [Example 87],6.00 to 7.00
7,Cc1cccc([C@H](CC(=O)O)NC(=O)c2cc(O)n(-c3ccc(F)cc3)n2)c1 [Example 354],6.00 to 7.00
8,COc1ccc(C(CC(=O)O)NC(=O)c2cc(O)n(-c3cc(C)ccc3C)n2)cc1OC (centres unmarked) [Example 30],4.52 to 6.00
9,O=C(O)CC(NC(=O)c1cc(O)n(-c2ccc(F)cc2)n1)c1ccc(F)cc1F (centres unmarked) [Example 86],4.52 to 6.00
10,O=C(O)CC(NC(=O)c1cc(O)n(-c2ccc(F)cc2)n1)c1cccc2c1OCO2 (centres unmarked) [Example 336],6.00 to 7.00
11,Cc1ccc(C)c(-n2nc(C(=O)NC(CC(=O)O)C(C)C)cc2O)c1 (centres unmarked) [Example 32],4.52 to 6.00
12,O=C(O)CC(NC(=O)c1cc(O)n(-c2ccccc2)n1)c1ccc(-c2ccccc2)cc1 (centres unmarked) [Example 69],6.00 to 7.00

# Same assay, conditions: recombinant human cathepsin A 833 ng/ml, Bodipy FL-labeled bradykinin 2 μM, pH 5.5; read-out: CATH-A IC50
row,Structure (SMILES),pIC50
1,"O=C(O)CC(NC(=O)c1cc(O)n(-c2ccc(Cl)cc2)n1)c1cc(F)ccc1C(F)(F)F (centres unmarked) [Example 473, 3-{[1-(4-Chloro-phenyl)-5-hydroxy-1H-pyrazole-3-carbonyl]-amino}-3-(5-fluoro-2-trifluoromethyl-phenyl)-propionic acid]",5.76
2,"Cc1ccc([C@H](CC(=O)O)NC(=O)c2cc(O)n(-c3cccc(Cl)c3)n2)cc1 [Example 512, (S)-3-{[1-(3-Chloro-phenyl)-5-hydroxy-1H-pyrazole-3-carbonyl]-amino}-3-p-tolyl-propionic acid]",6.81
3,"O=C(O)CC(NC(=O)c1cc(O)n(-c2cccc(Cl)c2)n1)c1cc(F)ccc1C(F)(F)F (centres unmarked) [Example 466, 3-{[1-(3-Chloro-phenyl)-5-hydroxy-1H-pyrazole-3-carbonyl]-amino}-3-(5-fluoro-2-trifluoromethyl-phenyl)-propionic acid]",6.25
4,"O=C(O)CC(NC(=O)c1cc(O)n(-c2ccccc2F)n1)c1ccc(-n2cncn2)cc1 (centres unmarked) [Example 550, 3-{[1-(2-Fluoro-phenyl)-5-hydroxy-1H-pyrazole-3-carbonyl]-amino}-3-(4-[1,2,4]triazol-1-yl-phenyl)-propionic acid]",6.20
5,"CC(C)(C)[C@@](C)(O)COc1cc(C(=O)N[C@@H](CC(=O)O)c2ccc(F)cc2)nn1-c1ccccc1F [Example 771, (S)-3-(4-Fluoro-phenyl)-3-{[1-(2-fluoro-phenyl)-5-((R)-2-hydroxy-2,3,3-trimethyl-butoxy)-1H-pyrazole-3-carbonyl]-amino}-propionic acid]",8.71
6,"O=C(O)CC(NC(=O)c1cc(O)n(-c2ccc(Cl)cc2)n1)c1cccc2c1OC(F)(F)O2 (centres unmarked) [Example 471, 3-{[1-(4-Chloro-phenyl)-5-hydroxy-1H-pyrazole-3-carbonyl]-amino}-3-(2,2-difluoro-benzo[1,3]dioxol-4-yl)-propionic acid]",6.31
7,"CC(C)(C)[C@@](C)(O)COc1cc(C(=O)N[C@@H](CC(=O)O)c2ccccc2Cl)nn1-c1ccccc1F (single isomer, unassigned) [Example 758]",7.76

# Same assay, conditions: recombinant human cathepsin A; read-out: Activity (2): Cathepsin A inhibitory activity, IC50 class
row,Structure (SMILES),pIC50
1,"O=C(O)CC(NC(=O)c1cc(O)n(-c2ccc(Cl)cc2)n1)c1cc(F)ccc1C(F)(F)F (centres unmarked) [Example 473, 3-{[1-(4-Chloro-phenyl)-5-hydroxy-1H-pyrazole-3-carbonyl]-amino}-3-(5-fluoro-2-trifluoromethyl-phenyl)-propionic acid]",4.52 to 6.00
2,"Cc1ccc([C@H](CC(=O)O)NC(=O)c2cc(O)n(-c3cccc(Cl)c3)n2)cc1 [Example 512, (S)-3-{[1-(3-Chloro-phenyl)-5-hydroxy-1H-pyrazole-3-carbonyl]-amino}-3-p-tolyl-propionic acid]",6.00 to 7.00
3,"O=C(O)CC(NC(=O)c1cc(O)n(-c2cccc(Cl)c2)n1)c1cc(F)ccc1C(F)(F)F (centres unmarked) [Example 466, 3-{[1-(3-Chloro-phenyl)-5-hydroxy-1H-pyrazole-3-carbonyl]-amino}-3-(5-fluoro-2-trifluoromethyl-phenyl)-propionic acid]",6.00 to 7.00
4,O=C(O)C[C@H](NC(=O)c1cc(O)n(-c2cccc(F)c2)n1)c1cccc(Cl)c1Cl [Example 428],6.00 to 7.00
5,Cc1ccc([C@H](CC(=O)O)NC(=O)c2cc(O)n(-c3ccccc3F)n2)cc1 [Example 480],6.00 to 7.00
6,"O=C(O)CC(NC(=O)c1cc(O)n(-c2ccc(Cl)cc2)n1)c1cccc2c1OC(F)(F)O2 (centres unmarked) [Example 471, 3-{[1-(4-Chloro-phenyl)-5-hydroxy-1H-pyrazole-3-carbonyl]-amino}-3-(2,2-difluoro-benzo[1,3]dioxol-4-yl)-propionic acid]",6.00 to 7.00
7,Cc1ccc(C(CC(=O)O)NC(=O)c2cc(O)n(-c3cccc(Cl)c3)n2)c(C)c1 (centres unmarked) [Example 419],6.00 to 7.00
8,O=C(O)CC(NC(=O)c1cc(O)n(-c2cccc(Cl)c2)n1)c1cccc(Cl)c1 (centres unmarked) [Example 408],6.00 to 7.00
